According to patent US20240041042A1, “1-(PYRIDYL)-5-AZINYLPYRAZOLE DERIVATIVES, AND THEIR USE FOR CONTROL OF UNDESIRED PLANT GROWTH” (Bayer Aktiengesellschaft, priority 2020, published 2024):
Like-named read-outs stand apart in the source and are kept apart here.

What was measured:
Format in all cases: in vivo
[1] = test system: Matricaria inodora (MATIN); assay: Post-emergence herbicidal action against MATIN
Summary of the method: (§1)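 Doses of 320 g/ha or lower, suffixes a, b and c marking different dosages, were applied post-emergence at the one-leaf stage in 600 l/ha water with 0.5% additive. Damage was assessed visually after about 3 weeks in the greenhouse.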

[2] = test system: Pharbitis purpurea (PHBPU); assay: Post-emergence herbicidal action against PHBPU
Summary of the method: as §1

[3] = test system: Polygonum convolvulus (POLCO); assay: Post-emergence herbicidal action against POLCO
Summary of the method: as §1

[4] = test system: Echinochloa crus-galli (ECHCG); assay: Post-emergence herbicidal action against ECHCG
Summary of the method: as §1

[5] = test system: Verconica persica (VERPE); assay: Post-emergence herbicidal action against VERPE
Summary of the method: as §1

[6] = test system: Viola tricolor (VIOTR); assay: Post-emergence herbicidal action against VIOTR
Summary of the method: as §1

[7] = test system: Abutilon theophrasti (ABUTH); assay: Post-emergence herbicidal action against ABUTH; settings: visual rating about 3 weeks after treatment vs untreated controls (100% = plants have died, 0% = like control plants)
Summary of the method: as §1

[8] = test system: Setaria viridis (SETVI); assay: Post-emergence herbicidal action against SETVI
Summary of the method: as §1

[9] = test system: Lolium rigidum (LOLRI); assay: Post-emergence herbicidal action against LOLRI
Summary of the method: as §1

[10] = test system: Avena fatua (AVEFA); assay: Post-emergence herbicidal action against AVEFA; settings: visual rating about 3 weeks after treatment
Summary of the method: as §1

[11] = test system: Amaranthus retroflexus (AMARE); assay: Post-emergence herbicidal action against AMARE
Summary of the method: as §1

[12] = test system: Digitaria sanguinalis (DIGSA); assay: Post-emergence herbicidal action against DIGSA; settings: visual rating about 3 weeks after treatment
Summary of the method: as §1

[13] = test system: Zea mays (ZEAMX); settings: for Post-emergence action against ZEAMX in % (crop plant compatibility): 20 g/ha, effect in comparison to untreated controls; for Post-emergence action against ZEAMX in %: crop plant compatibility, effect vs untreated controls
Summary of the method: (§2)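 Effects were read visually as % versus untreated controls (0% = no effect, 100% = death) about 3 weeks post-treatment. Application was a post-emergence spray at the one-leaf stage of WP/EC formulations with 0.5% additive at 600 l/ha. Different dosages are denoted a, b and c.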

[14] = test system: Oryza sativa (ORYSA); settings: crop plant compatibility
Summary of the method: as §2

[15] = test system: Triticum aestivum (TRZAS); settings: crop plant compatibility, 20 g/ha, effect vs untreated controls
Summary of the method: as §2

[16] = test system: Alopecurus myosuroides (ALOMY); assay: Post-emergence herbicidal action against ALOMY; settings: visual rating about 3 weeks after treatment vs untreated controls (100% = plants have died, 0% = like control plants)
Summary of the method: as §1

[17] = test system: Echinochloa crus-galli (ECHCG); assay: Pre-emergence herbicidal action against ECHCG; settings: dosage 320 g/ha
Summary of the method: (§3)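 Herbicide applied to soil before seedling emergence, at 600 l/ha spray volume with 0.5% additive and rates up to 320 g/ha. Evaluation: visual percentage effect, about 3 weeks later, greenhouse-grown pots compared with untreated ones.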

[18] = test system: Lolium rigidum (LOLRI); assay: Pre-emergence herbicidal action against LOLRI
Summary of the method: as §3

[19] = test system: Matricaria inodora (MATIN); assay: Pre-emergence herbicidal action against MATIN; settings: dosage 320 g/ha
Summary of the method: as §3

[20] = test system: Verconica persica (VERPE); assay: Pre-emergence herbicidal action against VERPE
Summary of the method: as §3

[21] = test system: Zea mays (ZEAMX); settings: pre-emergence, 80 g/ha, crop plant compatibility, in comparison to untreated controls
Text: Seeds of monocotyledonous and dicotyledonous weed plants and crop plants are placed in plastic or organic planting pots and covered with soil. The compounds of the invention, formulated in the form of wettable powders (WP) or as emulsion concentrates (EC), are then applied to the surface of the covering soil as aqueous suspension or emulsion with addition of 0.5% additive at a water application rate equivalent to 600 l/ha. After the treatment, the pots are placed in a greenhouse and kept under good growth conditions for the trial plants. After about 3 weeks, the effect of the preparations is scored visually in comparison with untreated controls as percentages. For example, 100% activity=the plants have died, 0% activity=like control plants.
The observed effects on selected crop plants are reported here in comparison to the untreated controls (values in %). The appendices “a” “b” and “c” give differentiation by dosage used with otherwise the same crop plants tested.

[22] = test system: Polygonum convolvulus (POLCO); assay: Pre-emergence herbicidal action against POLCO
Summary of the method: as §3

[23] = test system: Avena fatua (AVEFA); assay: Pre-emergence herbicidal action against AVEFA; settings: 320 g/ha, visual scoring after about 3 weeks vs untreated controls
Summary of the method: as §3

[24] = test system: Viola tricolor (VIOTR); assay: Pre-emergence herbicidal action against VIOTR
Summary of the method: as §3

[25] = test system: Setaria viridis (SETVI); assay: Pre-emergence herbicidal action against SETVI; settings: dosage 320 g/ha
Summary of the method: as §3

[26] = test system: Amaranthus retroflexus (AMARE); assay: Pre-emergence herbicidal action against AMARE; settings: visual scoring after about 3 weeks vs untreated controls
Summary of the method: as §3

[27] = test system: Alopecurus myosuroides (ALOMY); assay: Pre-emergence herbicidal action against ALOMY; settings: 320 g/ha; scored visually after about 3 weeks; 100% = plants have died
Summary of the method: as §3

[28] = 80 g/ha, visual rating about 3 weeks after treatment vs untreated controls (100% = plants have died, 0% = like control plants)
[29] = 320 g/ha, visual rating about 3 weeks after treatment
[30] = 20 g/ha, effect vs untreated controls

SMILES | Post-emergence action against MATIN in % ([1]; dosage 320 g/ha) [%] | Post-emergence action against PHBPU in % ([2]; dosage 320 g/ha) [%] | Post-emergence action against POLCO in % ([3]; dosage 80 g/ha) [%] | Post-emergence action against POLCO in % ([3]; dosage 320 g/ha) [%] | Post-emergence action against ECHCG in % ([4]; dosage 80 g/ha) [%] | Post-emergence action against ECHCG in % ([4]; dosage 320 g/ha) [%] | Post-emergence action against VERPE in % ([5]; 320 g/ha, VERPE) [%] | Post-emergence action against VERPE in % ([5]; dosage 80 g/ha) [%] | Post-emergence action against VIOTR in % ([6]; 80 g/ha) [%] | Post-emergence action against VIOTR in % ([6]; 320 g/ha) [%] | Post-emergence action against ABUTH in % ([7]; 80 g/ha) [%] | Post-emergence action against ABUTH in % ([7]; 320 g/ha) [%] | Post-emergence action against SETVI in % ([8]; dosage 320 g/ha) [%] | Post-emergence action against LOLRI in % ([9]; dosage 320 g/ha) [%] | Post-emergence action against AVEFA in % ([10]; 320 g/ha) [%] | Post-emergence action against AMARE in % [11, 28] [%] | Post-emergence action against AMARE in % [11, 29] [%] | Post-emergence action against DIGSA in % ([12]; 80 g/ha) [%] | Post-emergence action against DIGSA in % ([12]; 320 g/ha) [%] | Post-emergence action against ALOMY in % ([16]; 320 g/ha) [%] | other results
CCOC(=O)COc1nn(-c2ncccc2C)c(-c2cncc(F)c2)c1Cl [Example I-181] | 80 | 100 | 80 | 80 | 90 | 100 | 90 | 90 | 90 | 90 | 80 | 80 | 90 | 80 | 90 | 80 | 90 | 90 | 90 | 90 | Post-emergence action against MATIN in % ([1]; dosage 80 g/ha): 80%; Post-emergence action against PHBPU in % ([2]; dosage 80 g/ha): 90%; Post-emergence action against SETVI in % ([8]; dosage 80 g/ha): 80%; Post-emergence action against ZEAMX in % (crop plant compatibility) [13]: 20%; Post-emergence action against ORYSA in % [14, 30]: 0%; Post-emergence action against TRZAS in % [15]: 20%; Post-emergence action against ALOMY in % ([16]; 80 g/ha): 80%
COC(=O)COc1nn(-c2ncccc2F)c(-c2ccnc(F)c2)c1Br [Example I-130] | 80 | 80 |  | 80 |  | 90 | 80 | 80 | 90 | 90 | 80 | 90 |  | 90 | 90 | 80 | 90 | 80 | 90 | 90 | Post-emergence action against ZEAMX in % (crop plant compatibility) [13]: 0%; Post-emergence action against ZEAMX in % ([13]; 80 g/ha): 0%; Post-emergence action against ZEAMX in % ([13]; 320 g/ha): 20%; Post-emergence action against ORYSA in % [14, 30]: 0%; Post-emergence action against TRZAS in % [15]: 20%
CCOC(=O)[C@@H](C)Oc1nn(-c2ncccc2Cl)c(-c2ccc(F)nc2)c1Br [Example I-27] |  |  | 80 | 80 | 90 | 90 | 90 | 80 | 80 | 80 |  | 90 | 90 | 90 | 100 | 90 | 90 |  |  | 100 | Pre-emergence action against ECHCG in % [17]: 100%; Pre-emergence action against LOLRI in % ([18]; dosage 80 g/ha): 100%; Pre-emergence action against LOLRI in % ([18]; dosage 320 g/ha): 100%; Pre-emergence action against MATIN in % [19]: 80%; Pre-emergence action against VERPE in % ([20]; dosage 80 g/ha): 80%; Pre-emergence action against VERPE in % ([20]; dosage 320 g/ha): 100%; Pre-emergence action against ZEAMX in % [21]: 20%; Pre-emergence action against POLCO in % ([22]; dosage 80 g/ha): 90%; Pre-emergence action against POLCO in % ([22]; dosage 320 g/ha): 100%; Pre-emergence action against AVEFA in % [23]: 100%; Pre-emergence action against VIOTR in % ([24]; 320 g/ha, Viola tricolor): 100%; Pre-emergence action against VIOTR in % ([24]; dosage 80 g/ha): 100%; Pre-emergence action against SETVI in % [25]: 100%; Post-emergence action against LOLRI in % ([9]; dosage 80 g/ha): 90%; Post-emergence action against AVEFA in % ([10]; 80 g/ha): 100%; Post-emergence action against ORYSA in % ([14]; 80 g/ha, effect in comparison to untreated controls): 0%; Post-emergence action against ALOMY in % ([16]; 80 g/ha): 80%; Pre-emergence action against AMARE in % ([26]; 80 g/ha): 90%; Pre-emergence action against AMARE in % ([26]; 320 g/ha): 100%; Pre-emergence action against ALOMY [27]: 100%
